Data reported in ChEMBL document CHEMBL4312021, “Discovery of [1,2,4]-triazolo [1,5-a]pyrimidine-7(4H)-one derivatives as positive modulators of GABAA1 receptor with potent anticonvulsant activity and low toxicity” (Eur J Med Chem, 2020).
Activity calls are given as the source filed them. The calls are words filed in the database; no cut-off is given here.

Key:
[1] = target: T1, GABA-A receptor; alpha-1/beta-2/gamma-2 (Homo sapiens) (UniProt P14867+P47870+P18507); assay: Activation of recombinant human GABA receptor alpha1beta2gamma2 expressed in CHO cells and measured for 120 secs by FMP dye based FLIPR assay; assay type: cell-based
[2] = Protective index, ratio of TD50 for neurotoxicity in ip dosed Kunming mouse to ED50 for anticonvulsant activity in ip dosed Kunming mouse; assay type: toxicity, organism-based; settings: in vivo, read-out: Ratio TD50/ED50
Mus musculus [3] = organism: Mus musculus; assay: Inhibition of sodium channel in C57BL/6 mouse primary cortical neurons at 10 uM by manual patch clamp electrophysiology method
[4] = target: T1, GABA-A receptor; alpha-1/beta-2/gamma-2 (Homo sapiens); assay: (§1) Activation of recombinant human GABA receptor alpha1beta2gamma2 expressed in CHO cells in presence of GABA and measured for 120 secs by FMP dye based FLIPR assay; assay type: cell-based
[5] = target: T2, GABA-A receptor; alpha-1/beta-2/gamma-2 (Homo sapiens, UniProt P14867+P18507+P47870); assay: as §1; assay type: cell-based
T2 sequence (P14867 whole entry): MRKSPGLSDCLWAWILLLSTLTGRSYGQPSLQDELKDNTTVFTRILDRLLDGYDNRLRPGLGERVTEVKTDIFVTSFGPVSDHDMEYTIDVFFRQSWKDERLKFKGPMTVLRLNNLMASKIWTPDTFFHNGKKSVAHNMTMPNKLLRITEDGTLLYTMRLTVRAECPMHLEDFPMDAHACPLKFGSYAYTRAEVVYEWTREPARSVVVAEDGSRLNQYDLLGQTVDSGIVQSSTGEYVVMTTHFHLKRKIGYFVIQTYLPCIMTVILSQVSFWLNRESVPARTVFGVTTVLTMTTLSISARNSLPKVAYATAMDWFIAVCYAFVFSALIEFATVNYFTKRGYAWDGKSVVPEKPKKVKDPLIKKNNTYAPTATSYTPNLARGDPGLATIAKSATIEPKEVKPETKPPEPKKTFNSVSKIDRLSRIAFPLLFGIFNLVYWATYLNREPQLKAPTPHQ
T2 sequence (P47870 whole entry): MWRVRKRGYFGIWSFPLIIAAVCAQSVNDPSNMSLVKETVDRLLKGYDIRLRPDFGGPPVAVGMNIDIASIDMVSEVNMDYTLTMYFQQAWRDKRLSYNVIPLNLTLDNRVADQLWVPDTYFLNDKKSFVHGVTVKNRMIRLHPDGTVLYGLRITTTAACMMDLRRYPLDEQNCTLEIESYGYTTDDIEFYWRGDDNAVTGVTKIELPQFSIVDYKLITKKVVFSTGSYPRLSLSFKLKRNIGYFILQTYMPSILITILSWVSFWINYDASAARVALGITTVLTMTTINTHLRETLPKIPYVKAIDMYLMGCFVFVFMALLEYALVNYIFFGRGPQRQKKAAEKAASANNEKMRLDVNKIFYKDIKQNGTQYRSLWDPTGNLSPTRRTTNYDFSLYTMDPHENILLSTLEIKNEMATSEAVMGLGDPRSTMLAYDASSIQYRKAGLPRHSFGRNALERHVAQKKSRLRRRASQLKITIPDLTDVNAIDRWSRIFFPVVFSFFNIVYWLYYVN
T2 sequence (P18507 whole entry): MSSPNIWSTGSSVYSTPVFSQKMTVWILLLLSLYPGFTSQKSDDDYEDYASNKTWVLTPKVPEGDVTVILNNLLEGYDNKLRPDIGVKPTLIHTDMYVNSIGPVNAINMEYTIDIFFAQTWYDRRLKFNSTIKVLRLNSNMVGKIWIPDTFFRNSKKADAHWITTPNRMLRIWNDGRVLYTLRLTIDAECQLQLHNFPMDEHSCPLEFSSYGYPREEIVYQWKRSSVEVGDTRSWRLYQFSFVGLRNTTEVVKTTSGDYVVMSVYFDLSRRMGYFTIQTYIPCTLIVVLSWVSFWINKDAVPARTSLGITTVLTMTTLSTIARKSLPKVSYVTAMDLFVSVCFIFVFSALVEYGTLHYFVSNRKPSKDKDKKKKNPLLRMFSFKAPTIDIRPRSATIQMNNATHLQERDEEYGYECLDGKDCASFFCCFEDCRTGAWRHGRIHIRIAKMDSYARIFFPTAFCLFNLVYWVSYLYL

Mus musculus [6] = organism: Mus musculus; assay: Inhibition of sodium channel in C57BL/6 mouse Primary cortical neurons at 100 uM by manual patch clamp electrophysiology method
Mus musculus [7] = assay: Anticonvulsant activity in Kunming mouse assessed as reduction in ScPTZ-induced seizure at 100 mg/kg, ip administered before 30 mins of ScPTZ stimulation; assay type: functional, organism-based
[8] = Neurotoxicity in ip dosed Kunming mouse assessed as reduction in equilibrium measured after 30 mins by rotarod test; assay type: toxicity, organism-based; settings: in vivo
Cortical neurone = assay: Antiepileptic actvity in C57BL/6 mouse Primary cortical neuron assessed as reduction in 4-AP-induced excitability measured for 8 mins by Fluo-8/AM staining based FLIPR assay; assay type: functional, cell-based; settings: C57BL/6, Cortical neurone
Mus musculus [9] = assay: Anticonvulsant activity in Kunming mouse assessed as reduction in ScPTZ-induced seizure at 30 mg/kg, ip administered before 30 mins of ScPTZ stimulation; assay type: functional, organism-based
Mus musculus [10] = assay: Anticonvulsant activity in Kunming mouse assessed as reduction in MES-induced seizure at 30 to 300 mg/kg, ip measured after 30 mins; assay type: functional, organism-based
Mus musculus [11] = assay: Anticonvulsant activity in Kunming mouse assessed as reduction in ScPTZ-induced seizure at 300 mg/kg, ip administered before 30 mins of ScPTZ stimulation; assay type: functional, organism-based
[12] = target: T2, GABA-A receptor; alpha-1/beta-2/gamma-2; assay: Positive allosteric modulation of recombinant human GABA receptor alpha1beta2gamma2 expressed in CHO cells at 30 uM in presence of GABA and measured for 120 secs by FMP dye based FLIPR assay (reference value: 0.25 +/- 0.03 uM); assay type: cell-based
Mus musculus [13] = assay: Anticonvulsant activity in ip dosed Kunming mouse assessed as reduction in ScPTZ-induced seizure administered before 30 mins of ScPTZ stimulation; assay type: functional; settings: 0.5 h

Activity [1]: inactive | inhibition (Mus musculus [3]): inactive | Activity [4]: Dose-dependent effect | EC50 [5]: 3080 nM | inhibition (Mus musculus [6]): inactive | IC50 (Cortical neurone): 452 nM | EC50 [12]: 200 nM
SMILES: O=c1cc(Cc2ccc(Cl)cc2)[nH]c2nc(-c3ccccc3)nn12
selectivity ratio [2]: 17.2 | Activity (Mus musculus [7]): Active | TD50 at 0.5 h [8]: 548 mg/kg | Activity (Mus musculus [9]): Active | Activity (Mus musculus [10]): inactive | Activity (Mus musculus [11]): Active | ED50 (Mus musculus [13]): 31.8 mg/kg
